According to BigSolDB 2.1:

N#Cc1c(Cl)c(Cl)c(Cl)c(C#N)c1Cl
solubility (mole fraction)
Settings	in 1,4-dioxane	in DMAc	in DMF	in MIBK	in THF	in acetone	in acetonitrile	in cyclohexanone	in ethyl acetate	in n-propyl acetate
288.15 K	0.0082	0.017	0.00992	0.00381	0.00909	0.00369	0.00134	0.0079	0.00311	0.0033
293.15 K	0.00951	0.0191	0.0111	0.00447	0.0102	0.00443	0.00161	0.00905	0.00374	0.00384
298.15 K	0.0109	0.0211	0.0128	0.00509	0.012	0.00512	0.00193	0.0106	0.00435	0.00444
303.15 K	0.0118	0.0239	0.0142	0.00603	0.0137	0.00566	0.00228	0.0123	0.00496	0.00523
308.15 K	0.0136	0.0264	0.0155	0.00668	0.0155	0.00682	0.00272	0.0135	0.00543	0.00566
313.15 K	0.015	0.03	0.0177	0.00802	0.0172	0.00779	0.00308	0.0154	0.00643	0.0067
318.15 K	0.0177	0.0334	0.0197	0.0102	0.0208	0.00932	0.00413	0.019	0.00744	0.0079
323.15 K	0.0215	0.0359	0.0233	0.0115	0.023	0.0113	0.00462	0.0222	0.00893	0.00904
